{"source": "patent US20220142914A1", "about": "“SUSPENSION FORMULATIONS OF HIGH LOAD DISPERSIONS” (Austin Research Labs Corp., priority 2018, published 2022)", "assay": "Endotoxin (LPS) adsorption capacity and efficiency of sorbents", "type": "binding", "settings": "96,528 ± 9,726 EU used, about 38-39.5 mg sorbent, n=6", "data": [{"substance": "Polymycin B, -sulfate [PMB]", "values": [{"measurement": "Adsorption Capacity (EU/mg) ± SD", "value": "1,746 ± 265 EU/mg"}, {"measurement": "Adsorption Efficiency, E (%) ± SD", "value": "69.66 ± 10.58", "unit": "%"}, {"measurement": "LPS Conc. Post Incubation (EU/ml) ± SD", "value": "760 ± 265", "unit": "EU/ml"}, {"measurement": "Log10 Reduction ± SD", "value": "0.538 ± 0.142"}]}]}
